A short description of data set [1]: water solubility of biomimics.
Data set [2] in a line: regioselective reduction of biomimics with catalyst precursor (2) and sodium formate, followed by 1H NMR. The note with it: reduction to 1,4-dihydro derivative; NAD+ under the same conditions. How it is done:
The relative rates, seen tabulated in FIG. 1C, were determined by observing disappearance of the pyridinium signals versus an internal standard, [(CH3)4N]OTf (tetramethylammonium triflate), during the first 2 hours, where the relative rate of 1-benzylnicotinamide triflate (1) was set to 1.0. The turnover frequencies were calculated by the formation of mmol of product/mmol of catalyst/hour. The total turnover number in 24 hours was ˜95 for all substrates that gave product. The reactions were conducted in presilylated J. Young NMR tubes and were followed by ^1H NMR.
The electronic effect of differently substituted nicotinamide substrates was determined by their relative rates. The relative rates of these compounds were determined by observing the disappearance of the pyridinium signals compared to interval standard, [(CH3)4N]OTf, during the first 2 hours, where the relative rate of compound (1a) was 1.0.
In a typical reaction, a J. Young NMR tube was charged, biomimic substrates (1a)-(1i) (1.0 mol), 2 (1% mol), and HCO2Na (1.1 mol) used as the hydride source and a Schlenk techniques were conducted to deoxygenate the solid mixture. A diluted solvent was added to these solids for compounds (1a)-(1i), the solvent was D2O-THF-d8 (1=1 0.75 mL, deoxygenated), and the NMR tube was placed in a liquid nitrogen bath. The contents were further degassed by two successive freeze-pump-thaw cycles. After thawing out the reaction mixture, the J. Young NMR tube was immediately put in a salted ice-bath and covered with aluminum foil. The reaction was then followed by ^1H NMR spectroscopy at 26° C. temperature, after a speedy thawing out.
The given relative rates and turnover frequencies were determined by decreasing integration of the corresponding pyridinium salts measured against an internal standard, (CH3)4N(OTf), during the first 2 h of the reaction. The ratios of the 1,4- and 1,6-dihydronicotinamide derivatives of compounds (1a), (1b) and (1d)-(1g) were obtained by comparison of the resonance signals with those of authentic samples, where the diagnostic signal is the resonance for —CH2Ph moiety which can be identified unambiguously in the ^1H NMR spectrum.

A short description of data set [3]: UV-vis kinetics of the regioselective reduction with rhodium catalyst precursor (2) and formate. From the text:
The kinetics of the regioselective reduction reactions were further studied utilizing UV-vis techniques with the two biomimic compounds (1) and (6) and the results were compared to NAD^+ itself. Experimental conditions are described in Example 9.
The effect of the initial rate (ri) at low conversions to the 1,4-dihydro product (˜10%) was ascertained by varying the amount of substrate precatalyst (2) and sodium formate concentrations.
The initial rates (ri) of formation of compound (3) were obtained from plots of concentration (absorbance at 354 nm/ε) versus time at low conversions (˜10%). The values of kcat were calculated at 299° K.
Rates were obtained via UV-vis techniques and are an average of two runs.
This example describes studies producing kinetic and thermodynamic data for 1-benzylnicotinamide triflate (1a) performed in THF/H2O, 1:1, β-nicotinamide -5′-ribose methyl phosphate (6) H2O, pH=6.5, and NAD^+ performed in the regioselective reduction with [Cp*Rh(bpy)H2O)][OTf]2, 2 and in the presence of formate ion.
The kinetic experiments were carried out on a Hewlett Packard 8452A Diode Array Uv-Vis spectrophotometer, attached to a circulating water bath (VWR 1160). For experiments conducted at different temperatures, the circulating water bath, as well as the UV-vis instrument, were warmed up for at least an 1 hour before the kinic studies were initiated.
The 1-benzylnicotinamide triflate (1a) [CP*Rh(bpy)(H2O)][OTf]2 (2) and 1-benzyl-1,4 dihydronicotinamide (3) were synthesized by methods as described in Examples 2, 4 and 7. The NAD^+ and 1,4-NADH compounds were purchased from Sigma and used as received. The THF was distilled from Na and deoxygenate with N2 gas for 1 hour. Distilled water was purchased from Aldrich Chemical Co and deoxygenate prior to being used. A solution of THF/H2O (similar for 1:1 or 1:4 ratios) was used for all the kinetic experiments performed for compounds of 1-benzylnicotinamide type, unless otherwise specified. A stock solution of biomimic (1a) (0.018 M), 2 (6.23×10^−3 M), and sodium formate (0.25 M) were made for the kinetic experiments in THF/H2O (1:1).
A solution of 1-benzylnicotinamide triflate (1a), (4.29×10^−3 M) and sodium formate (0.0539) was made in a volumetric flask (10 mL) under N2 in a THF/H2O (1:1) mixture. The different concentration of biomimic (1a) and sodium formate used for the kinetic experiments are reported above.
A 3.0 mL aliquot of this solution was transferred to a thermostated UV-vis cell by using an air-free syringe, which was also purged with N2 gas. The sample was then brought to the desired temperature for 30-60 min in the UV-vis spectrophotometer thermostated cell holder. Then, 23 μL of a 6.23×10^−3 M stock solution of [CP*Rh(bpy)(H2O)^2+ (2), was added-by syringe under a positive N2 pressure, quickly mixed with the solution, and the absorbance increase at 354 nm was immediately recorded. The experiment was carried out for 2 hours and the formation of the product, 1-benzyl-1,4-dihydronicotinamide, (3) was followed, with the change in absorbance being recorded every 90 seconds. Some kinetic experiments were carried out until all the starting material was converted to product. The induced volume change was taken into account for the calculation of the turnover frequency (TOF).
The kinetic experiments for the β-nicotinamide-5′-ribose methyl phosphate (6) and natural NAD^+ were performed using the same general procedure described above. These kinetic experiments were carried out in H2O and the concentration of β-nicotinamide-5′-ribose methyl phosphate (6) or NAD^+, sodium formate, and [Cp*Rh(bpy)(H2O)]^2+ (2), were in the order of 1.50×10^−3, 0.0186 M, and 1.42×10^−5 M, respectively. The λmax for the β-nicotinamide-5′-ribose methyl phosphate, (6), and natural NAD^+ was 336 nm. In all the initial rate plots, time =0 s was removed from the plots of Concentration versus Time. The standard deviation of the ri were calculated from 2σ values.

The target in data set [4] is T1, horse liver alcohol dehydrogenase (HLADH) (Equus caballus, UniProt P00327).
T1 construct: purchased Sigma
T1 sequence (P00327 2-375 limits assumed): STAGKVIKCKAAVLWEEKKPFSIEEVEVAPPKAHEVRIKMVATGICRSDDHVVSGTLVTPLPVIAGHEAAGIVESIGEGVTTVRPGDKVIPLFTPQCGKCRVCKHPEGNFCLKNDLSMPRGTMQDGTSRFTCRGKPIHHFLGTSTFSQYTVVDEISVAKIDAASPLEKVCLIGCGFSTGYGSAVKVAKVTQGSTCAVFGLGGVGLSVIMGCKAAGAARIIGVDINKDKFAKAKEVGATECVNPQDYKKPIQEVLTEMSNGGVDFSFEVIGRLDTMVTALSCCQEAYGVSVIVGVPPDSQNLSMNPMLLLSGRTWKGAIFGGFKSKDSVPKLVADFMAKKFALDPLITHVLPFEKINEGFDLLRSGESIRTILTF
Description: HLADH enzymatic chiral reduction of ketones with biomimic co-factor regeneration. The class given is biochemical. How it is done: FIG. 7 presents structures of ketone substrates 12-15 used for biomimic chiral synthesis of corresponding alcohols. Conversion of the substrates 12-15 to their corresponding alcohols are expressed in % yield, and TOF in d^−1 and S-enantiomer excess (ee) are also shown for each conversion. Corresponding values obtained with NAD^+ are given in parenthesis. The S-enantiomeric excess (ee) was determined by GLC with a modified β-cyclodextrin capillary column.
(§1) [Cp*Rh(bpy)(H2O)]OTf2 (1.9 mg, 2.61×10^−3 mmol), sodium formate (17.8 mg, 261.69×10^−3 mmol), NAD^+ (8.1 mg, 11.23×10^−3 mmol) and HLADH (10 units) were placed in a 10 mL Schlenk flask, and Schlenk techniques were followed to deoxygenate the solid mixture.
(§2) Under positive argon pressure, 5 mL of potassium phosphate buffer (100 mM, pH=7.02, deoxygenated) and carbonyl substrate (83.58×10^−3 mmol, deoxygenated) were added via syringe. The reaction flask was immediately securely capped with a glass-stopper and shaken with a shaker in 30° C. water-bath. The reaction was monitored by gas chromatography (GC), equipped with a β-cyclodextrin column (Supelco, β-DEX-225), and the products were identified by comparing the retention time with the corresponding authentic chiral samples and were confirmed by GC-MS. The enantiomeric excess of the products was determined directly by their relative area in the chromatogram. The progress of the reaction was obtained by mixing the reaction aliquot with an internal standard (cyclohexanol in phosphate buffer), and then calibrating the measured relative area in the chromatogram with their corresponding response factors. The reaction was monitored for 24 hours.
The same procedure as described in section A was followed, except that NAD^+ was substituted with any one of the biomimic compounds of the invention.

Data set [5] concerns the target T1, horse liver alcohol dehydrogenase (HLADH). Briefly: biomimetic reduction of norcamphor (racemic). Particulars: racemic norcamphor, same conditions for NAD^+. The class given is biochemical. How it is done: Biomimic yield expressed in equivalent was 86% corresponding to NAD^+ yield of 94% under the same conditions.
as §1, §2
The procedure described in section A is equally applicable to reduction of racemic compounds such as norcamphor, seen in FIG. 8. The method requires the following modification. Due to the sublimation of norcamphor in vacuo, the addition of norcamphor was conducted under positive argon pressure, followed by the addition of phosphate buffer via syringe.

Molecules are shown by their SMILES.

For the compound `C=CC(=O)OCCOCCOCC(=O)[n+]1cccc(C(N)=O)c1.[Br-]` [Compound 10, 1-(8-acryloyloxy-3,6-dioxaoctanoyl)-3-carbamoylpyridinium bromide], in data set [1], the water solubility result was “both water and organic solvent soluble”.

As to `NC(=O)C1=CN([C@@H]2O[C@H](COP(=O)(O)OP(=O)(O)OC[C@H]3O[C@@H](n4cnc5c(N)ncnc54)[C@H](O)[C@@H]3O)[C@@H](O)[C@H]2O)C=CC1` [NAD^+, β-Nicotinamide adenine dinucleotide, reference compound], in data set [2], the “turnover frequency (TOF) in the regioselective reduction” value was 18 h⁻¹. Further, in data set [3] (294° K, H2O at pH 6.54, substrate 1.55 × 10^−3 M), the TOF came to 9 h⁻¹. Also, the ri initial rate in data set [3] (294° K, H2O at pH 6.54, substrate 1.55 × 10^−3 M, average of two runs) is 3.1e-08 M/s. In data set [3] (acqueous medium, comparable concentrations), the “initial rate, times higher than compound (1) in THF/H2O (1:1)” value is listed as around 3 times. Further, the “turnover frequency of chiral ketone reduction” value in data set [4] (ketone (12) reduced by HLADH with co-factor regeneration, 24 hours) is around 30 day⁻¹. Further, in data set [5], the “yield of norcamphor reduction expressed in equivalent” value was determined as 94%.

Regarding `COP(=O)(O)OC[C@H]1O[C@@H](N2C=CCC(C(N)=O)=C2)[C@H](O)[C@@H]1O` [Compound 7, β-1,4-dihydronicotinamide ribose-5′-methyl phosphate], the “recognition by HLADH as hydride catalyst of the chiral conversion” value in data set [4] was “recognizes”. In data set [1], the water solubility entry is on record as “completely water soluble”.

For the origin of these results see patent publication US6716596B2, “Agents for replacement of NAD+/NADH system in enzymatic reactions” (The Regents of the University of California, priority 2001, dated 2004).
